Reference: US10420787B2, “Crystal-water-free calcium dibutyryladenosine cyclophosphate crystal form and preparation method and application thereof” (SPH NO.1 BIOCHEMICAL & PHARMACEUTICAL CO., LTD., priority 2014, dated 2019)
Several values for one entry are separate records, joined by “and”; a condition that tells them apart may be missing. Equal values may be shown once.

What was measured:
[1] = Long-term observation stability test (16° C., relative humidity 60±5%, 12 months); format: physicochemical; settings: RH 60±5%; for Related substances (%): HPLC
Description: (§1) Chromatographic conditions include:
(§2) HPLC purity is detected according to the method in the following embodiments.

[2] = Hygrothermal acceleration stability test (30° C., relative humidity 75±5%, 6 months); format: physicochemical; settings: RH 75±5%; for Related substances (%): HPLC
Description: as §1, §2

Compound	Content (%) ([1]; 0 months)	Related substances (%) ([1]; 0 months)	Content (%) ([1]; 3 months)	Related substances (%) ([1]; 3 months)	Content (%) ([1]; 6 months)	Related substances (%) ([1]; 6 months)	Content (%) ([1]; 9 months)	Related substances (%) ([1]; 9 months)	Content (%) ([1]; 12 months)	Related substances (%) ([1]; 12 months)	Content (%) ([2]; 0 months)	Related substances (%) ([2]; 0 months)	Content (%) ([2]; 1 month)	Related substances (%) ([2]; 1 month)	Content (%) ([2]; 2 months)	Related substances (%) ([2]; 2 months)	Content (%) ([2]; 3 months)	Related substances (%) ([2]; 3 months)	Content (%) ([2]; 6 months)	Related substances (%) ([2]; 6 months)
CCCC(=O)Nc1ncnc2c1ncn2[C@@H]1O[C@@H]2COP(=O)([O-])O[C@H]2[C@H]1OC(=O)CCC.CCCC(=O)Nc1ncnc2c1ncn2[C@@H]1O[C@@H]2COP(=O)([O-])O[C@H]2[C@H]1OC(=O)CCC.[Ca+2] [calcium dibutyryladenosine cyclophosphate]	95.8% and 96.2% and 95.2%	3.8% and 4.1% and 4.0%	95.5% and 96.1% and 95.3%	3.7% and 4.2% and 4.1%	95.6% and 96.0% and 95.1%	3.8% and 4.1% and 4.3%	95.5% and 95.9% and 95.0%	3.7% and 4.0% and 4.2%	95.3% and 95.8% and 94.9%	4.0% and 4.3% and 4.4%	95.8% and 96.2% and 95.2%	3.8% and 4.1% and 4.0%	95.3% and 95.8% and 95.0%	3.9% and 4.0% and 4.1%	95.1% and 95.4%	4.0% and 4.1%	94.9% and 95.0% and 94.7%	4.2% and 4.3%	94.5% and 94.7% and 94.3%	4.5% and 4.7% and 4.6%
calcium dibutyryladenosine cyclophosphate 2.3 hydrates [DBC-Ca•2.3H2O crystals, reference compound]	90.2%	5.3%	90.0%	5.3%	89.9%	5.5%	89.7%	5.6%	89.6%	5.9%	90.2%	5.3%	90.1%	5.5%	89.8%	5.8%	89.7%	5.9%	89.3%	6.1%
CCCC(=O)Nc1ncnc2c1ncn2[C@@H]1O[C@@H]2COP(=O)([O-])O[C@H]2[C@H]1OC(=O)CCC.CCCC(=O)Nc1ncnc2c1ncn2[C@@H]1O[C@@H]2COP(=O)([O-])O[C@H]2[C@H]1OC(=O)CCC.[Ca+2] [Anhydrouscalcium dibutyryladenosine cyclophosphate solids] [anhydrous calcium dibutyryladenosine cyclophosphate, reference compound]	954%	4.3%	95.0%	4.6%		4.8%	94.4%	5.2%	94.1%	5.4%		4.3%	94.8%	4.9%	94.2%	5.5%	93.5%	6.0%	93.0%	6.7%
